Measurements taken from US20200239530A1, “COMPOUNDS AND METHODS OF MODULATING PROTEIN DEGRADATION” (Vividion Therapeutics, Inc., priority 2017, published 2020).

Assays:
Assay in all cases: Cysteine liganding, probe competition
Format in all cases: binding
[1] = target: T1, KEAP1 Kelch-like ECH-associated protein 1 (Homo sapiens, UniProt Q14145); conditions: KEAP1 Res# 288, uniprot Q14145
T1 construct: Cells were resuspended in cold PBS on ice and sonicated with a probe sonicator to achieve lysis; endogenous in cells
Procedure, shortened: (§1)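 Probe competition in native proteome: 5 mg/ml lysate, compound 1 hr 25° C, then desthiobiotin iodoacetamide (10 mM stock) 1 hr 25° C; acetone ppt, urea/DTT reduction, iodoacetamide alkylation, trypsin, streptavidin pull-down.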

[2] = target: T2, SPAG5 Sperm-associated antigen 5 (Homo sapiens, UniProt Q96R06); conditions: SPAG5 Res# 382, uniprot Q96R06
T2 construct: Cells were resuspended in cold PBS on ice and sonicated with a probe sonicator to achieve lysis; endogenous in cells
Procedure, shortened: as §1

[3] = target: T3, L3MBTL3 Lethal(3)malignant brain tumor-like protein 3 (Homo sapiens, UniProt Q96JM7); conditions: L3MBTL3 Res# 233, uniprot Q96JM7
T3 construct: Cells were resuspended in cold PBS on ice and sonicated with a probe sonicator to achieve lysis; endogenous in cells
Procedure, shortened: as §1

[4] = target: T4, RNF213 E3 ubiquitin-protein ligase RNF213 (Homo sapiens, UniProt Q63HN8)
T4 construct: Cells were resuspended in cold PBS on ice and sonicated with a probe sonicator to achieve lysis; endogenous in cells
T4 sequence (Q63HN8 whole entry): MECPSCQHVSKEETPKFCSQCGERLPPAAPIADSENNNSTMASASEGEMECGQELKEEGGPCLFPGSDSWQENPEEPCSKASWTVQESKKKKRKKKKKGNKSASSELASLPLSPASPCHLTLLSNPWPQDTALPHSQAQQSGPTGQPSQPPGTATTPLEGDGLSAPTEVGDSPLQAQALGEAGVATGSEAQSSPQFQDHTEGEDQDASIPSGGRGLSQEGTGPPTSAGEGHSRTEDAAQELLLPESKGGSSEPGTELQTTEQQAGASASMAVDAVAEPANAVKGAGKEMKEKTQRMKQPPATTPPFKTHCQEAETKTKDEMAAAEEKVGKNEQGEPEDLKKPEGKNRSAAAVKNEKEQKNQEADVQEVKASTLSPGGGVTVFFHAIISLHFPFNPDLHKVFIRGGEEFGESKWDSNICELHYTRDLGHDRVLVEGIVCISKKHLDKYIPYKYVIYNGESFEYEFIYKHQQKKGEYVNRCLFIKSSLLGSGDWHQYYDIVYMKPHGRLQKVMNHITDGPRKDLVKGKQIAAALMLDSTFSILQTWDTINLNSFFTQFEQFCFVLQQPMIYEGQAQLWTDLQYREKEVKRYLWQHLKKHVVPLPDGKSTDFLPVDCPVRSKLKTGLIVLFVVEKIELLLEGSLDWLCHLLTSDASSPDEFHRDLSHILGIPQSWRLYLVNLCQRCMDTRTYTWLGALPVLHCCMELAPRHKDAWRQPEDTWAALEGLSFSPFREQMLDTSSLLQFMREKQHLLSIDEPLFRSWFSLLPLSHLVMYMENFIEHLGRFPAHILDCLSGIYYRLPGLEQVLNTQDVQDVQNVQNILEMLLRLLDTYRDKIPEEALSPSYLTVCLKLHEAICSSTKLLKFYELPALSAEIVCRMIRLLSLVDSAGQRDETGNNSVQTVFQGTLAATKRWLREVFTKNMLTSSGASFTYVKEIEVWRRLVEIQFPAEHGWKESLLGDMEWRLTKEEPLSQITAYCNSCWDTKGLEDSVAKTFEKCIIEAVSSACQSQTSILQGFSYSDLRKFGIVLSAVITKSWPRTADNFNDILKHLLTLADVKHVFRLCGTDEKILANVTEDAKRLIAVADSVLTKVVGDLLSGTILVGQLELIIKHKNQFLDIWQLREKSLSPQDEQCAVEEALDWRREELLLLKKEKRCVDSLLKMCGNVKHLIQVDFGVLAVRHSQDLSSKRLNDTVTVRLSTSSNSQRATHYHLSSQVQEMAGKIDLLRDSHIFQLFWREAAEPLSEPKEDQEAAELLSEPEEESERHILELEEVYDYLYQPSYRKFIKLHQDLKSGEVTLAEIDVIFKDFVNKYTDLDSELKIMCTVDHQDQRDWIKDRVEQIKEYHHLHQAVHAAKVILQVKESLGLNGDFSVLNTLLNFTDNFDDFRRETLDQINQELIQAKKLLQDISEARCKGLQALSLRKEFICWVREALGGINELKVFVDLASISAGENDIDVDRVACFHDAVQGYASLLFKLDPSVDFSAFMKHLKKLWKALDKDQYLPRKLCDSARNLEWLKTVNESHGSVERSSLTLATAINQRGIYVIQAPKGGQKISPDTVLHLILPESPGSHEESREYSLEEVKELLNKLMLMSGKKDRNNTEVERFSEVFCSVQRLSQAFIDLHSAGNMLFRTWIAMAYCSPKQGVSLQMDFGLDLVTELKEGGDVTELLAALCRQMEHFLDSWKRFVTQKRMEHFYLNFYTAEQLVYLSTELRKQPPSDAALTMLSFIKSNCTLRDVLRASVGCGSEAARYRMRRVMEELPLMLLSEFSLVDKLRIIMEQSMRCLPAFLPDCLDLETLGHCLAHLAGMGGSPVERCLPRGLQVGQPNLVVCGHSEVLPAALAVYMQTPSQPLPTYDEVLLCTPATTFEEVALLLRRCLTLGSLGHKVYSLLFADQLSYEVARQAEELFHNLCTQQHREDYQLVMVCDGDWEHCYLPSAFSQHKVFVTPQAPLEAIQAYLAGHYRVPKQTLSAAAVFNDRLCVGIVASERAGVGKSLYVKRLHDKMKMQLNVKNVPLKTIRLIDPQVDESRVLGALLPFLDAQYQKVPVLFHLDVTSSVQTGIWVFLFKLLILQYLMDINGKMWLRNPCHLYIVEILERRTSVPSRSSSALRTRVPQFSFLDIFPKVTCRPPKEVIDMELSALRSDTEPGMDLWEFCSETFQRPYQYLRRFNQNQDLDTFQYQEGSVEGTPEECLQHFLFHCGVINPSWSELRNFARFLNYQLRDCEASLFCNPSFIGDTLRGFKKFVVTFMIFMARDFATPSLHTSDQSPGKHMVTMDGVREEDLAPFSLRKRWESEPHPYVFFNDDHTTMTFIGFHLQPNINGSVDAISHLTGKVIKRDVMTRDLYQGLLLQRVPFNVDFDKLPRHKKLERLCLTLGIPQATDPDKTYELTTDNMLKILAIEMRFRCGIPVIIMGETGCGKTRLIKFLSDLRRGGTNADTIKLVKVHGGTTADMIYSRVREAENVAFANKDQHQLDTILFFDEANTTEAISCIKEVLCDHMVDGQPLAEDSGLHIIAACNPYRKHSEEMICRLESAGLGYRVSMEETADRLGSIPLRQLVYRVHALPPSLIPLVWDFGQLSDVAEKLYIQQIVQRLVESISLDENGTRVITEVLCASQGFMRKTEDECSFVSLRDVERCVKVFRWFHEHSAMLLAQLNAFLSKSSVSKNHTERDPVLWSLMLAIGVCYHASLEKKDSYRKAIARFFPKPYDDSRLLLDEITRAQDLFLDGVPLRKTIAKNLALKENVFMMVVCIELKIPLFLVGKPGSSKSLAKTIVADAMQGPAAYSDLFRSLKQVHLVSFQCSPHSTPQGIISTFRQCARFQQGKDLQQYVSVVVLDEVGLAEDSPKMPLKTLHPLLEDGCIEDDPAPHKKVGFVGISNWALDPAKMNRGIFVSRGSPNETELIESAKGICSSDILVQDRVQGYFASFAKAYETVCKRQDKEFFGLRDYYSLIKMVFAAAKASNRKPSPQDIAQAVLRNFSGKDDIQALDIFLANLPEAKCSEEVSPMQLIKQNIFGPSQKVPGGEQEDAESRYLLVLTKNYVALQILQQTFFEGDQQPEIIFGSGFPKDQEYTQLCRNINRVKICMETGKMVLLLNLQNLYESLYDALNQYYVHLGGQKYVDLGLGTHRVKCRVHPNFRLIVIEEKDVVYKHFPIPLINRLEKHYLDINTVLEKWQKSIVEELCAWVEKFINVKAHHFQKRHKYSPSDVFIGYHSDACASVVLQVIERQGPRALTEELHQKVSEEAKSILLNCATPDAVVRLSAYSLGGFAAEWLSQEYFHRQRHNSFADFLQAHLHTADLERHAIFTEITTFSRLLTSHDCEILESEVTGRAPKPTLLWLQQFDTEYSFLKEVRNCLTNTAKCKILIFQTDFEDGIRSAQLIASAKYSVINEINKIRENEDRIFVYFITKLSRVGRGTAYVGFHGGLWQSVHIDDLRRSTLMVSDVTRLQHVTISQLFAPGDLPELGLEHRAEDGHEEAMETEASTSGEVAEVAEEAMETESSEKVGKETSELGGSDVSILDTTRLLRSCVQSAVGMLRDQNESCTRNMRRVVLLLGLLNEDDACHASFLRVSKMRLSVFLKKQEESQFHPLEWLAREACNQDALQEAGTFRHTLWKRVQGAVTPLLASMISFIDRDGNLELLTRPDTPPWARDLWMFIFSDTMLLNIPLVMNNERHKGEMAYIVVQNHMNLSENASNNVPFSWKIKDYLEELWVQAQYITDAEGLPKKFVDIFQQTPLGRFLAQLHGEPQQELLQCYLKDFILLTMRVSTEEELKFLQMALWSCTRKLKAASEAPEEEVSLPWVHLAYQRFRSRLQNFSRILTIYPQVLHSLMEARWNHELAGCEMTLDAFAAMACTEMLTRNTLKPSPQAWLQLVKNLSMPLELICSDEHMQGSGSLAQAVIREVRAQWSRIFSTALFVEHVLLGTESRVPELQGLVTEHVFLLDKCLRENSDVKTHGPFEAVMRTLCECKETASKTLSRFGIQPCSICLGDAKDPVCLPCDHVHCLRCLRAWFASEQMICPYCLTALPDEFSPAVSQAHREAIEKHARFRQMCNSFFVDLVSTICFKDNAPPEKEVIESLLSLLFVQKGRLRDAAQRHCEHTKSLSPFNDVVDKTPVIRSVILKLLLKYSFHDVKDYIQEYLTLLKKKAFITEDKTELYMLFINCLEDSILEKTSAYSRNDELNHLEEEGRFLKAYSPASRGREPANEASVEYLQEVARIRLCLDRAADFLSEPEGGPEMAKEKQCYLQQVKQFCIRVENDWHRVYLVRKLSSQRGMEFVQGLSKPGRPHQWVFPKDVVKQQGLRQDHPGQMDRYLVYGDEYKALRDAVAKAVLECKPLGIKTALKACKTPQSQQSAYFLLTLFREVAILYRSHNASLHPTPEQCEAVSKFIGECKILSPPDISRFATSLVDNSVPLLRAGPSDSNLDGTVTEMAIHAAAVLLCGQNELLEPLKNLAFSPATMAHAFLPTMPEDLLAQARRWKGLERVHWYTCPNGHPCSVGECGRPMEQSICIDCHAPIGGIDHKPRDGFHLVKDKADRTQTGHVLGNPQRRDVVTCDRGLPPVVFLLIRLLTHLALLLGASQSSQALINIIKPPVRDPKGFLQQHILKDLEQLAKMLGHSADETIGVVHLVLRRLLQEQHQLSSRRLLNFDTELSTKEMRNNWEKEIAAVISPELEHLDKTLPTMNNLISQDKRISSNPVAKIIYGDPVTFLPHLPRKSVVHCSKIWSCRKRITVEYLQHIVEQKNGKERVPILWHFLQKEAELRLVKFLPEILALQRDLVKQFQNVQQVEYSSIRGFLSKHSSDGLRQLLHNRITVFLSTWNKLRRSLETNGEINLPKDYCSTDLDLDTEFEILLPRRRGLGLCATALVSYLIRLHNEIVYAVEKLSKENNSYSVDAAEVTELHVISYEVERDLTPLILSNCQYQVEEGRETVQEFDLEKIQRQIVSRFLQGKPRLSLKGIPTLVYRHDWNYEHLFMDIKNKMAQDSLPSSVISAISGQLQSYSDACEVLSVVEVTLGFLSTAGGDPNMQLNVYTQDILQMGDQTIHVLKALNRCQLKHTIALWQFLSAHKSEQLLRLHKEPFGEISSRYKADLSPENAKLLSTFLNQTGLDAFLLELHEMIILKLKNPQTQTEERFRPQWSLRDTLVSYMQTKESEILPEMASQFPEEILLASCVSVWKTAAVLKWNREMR
Procedure, shortened: as §1

[5] = target: T5, DTL Denticleless protein homolog (Homo sapiens, UniProt Q9NZJ0)
T5 construct: Cells were resuspended in cold PBS on ice and sonicated with a probe sonicator to achieve lysis; endogenous in cells
Procedure, shortened: as §1

[6] = target: T6, VDAC2 Voltage-dependent anion-selective channel protein (Homo sapiens, UniProt P45880)
T6 construct: Cells were resuspended in cold PBS on ice and sonicated with a probe sonicator to achieve lysis; endogenous in cells
Procedure, shortened: as §1

[7] = target: T7, UBE4A Ubiquitin conjugation factor E4 A (Homo sapiens, UniProt Q14139); conditions: UBE4A Res# 79, uniprot Q14139
T7 construct: Cells were resuspended in cold PBS on ice and sonicated with a probe sonicator to achieve lysis; endogenous in cells
Procedure, shortened: as §1

[8] = target: T8, MYCBP2 E3 ubiquitin-protein ligase MYCBP2 (Homo sapiens, UniProt O75592)
T8 construct: Cells were resuspended in cold PBS on ice and sonicated with a probe sonicator to achieve lysis; endogenous in cells
Procedure, shortened: as §1

[9] = target: T9, ZC3HC1 Nuclear-interacting partner of ALK (Homo sapiens, UniProt Q86WB0); conditions: ZC3HC1 Res# 406, uniprot Q86WB0
T9 construct: Cells were resuspended in cold PBS on ice and sonicated with a probe sonicator to achieve lysis; endogenous in cells
Procedure, shortened: as §1

[10] = target: T10, RNF2 E3 ubiquitin-protein ligase RING2 (Homo sapiens, UniProt Q99496)
T10 construct: Cells were resuspended in cold PBS on ice and sonicated with a probe sonicator to achieve lysis; endogenous in cells
T10 sequence (Q99496 1-336): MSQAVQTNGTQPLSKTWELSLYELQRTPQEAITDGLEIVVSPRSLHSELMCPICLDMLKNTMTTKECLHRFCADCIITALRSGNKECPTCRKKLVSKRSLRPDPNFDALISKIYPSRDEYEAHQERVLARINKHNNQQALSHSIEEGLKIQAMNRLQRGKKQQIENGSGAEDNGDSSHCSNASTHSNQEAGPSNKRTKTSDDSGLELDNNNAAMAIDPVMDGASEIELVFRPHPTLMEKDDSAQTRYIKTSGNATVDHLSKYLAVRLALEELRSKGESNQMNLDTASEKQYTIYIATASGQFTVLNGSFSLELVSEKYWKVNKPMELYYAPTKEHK
Procedure, shortened: as §1

| SMILES | Liganded [1] | Liganded [2] | Liganded [3] | Liganded ([4]; RNF213 Res# 1510, uniprot Q63HN8) | Liganded ([4]; RNF213 Res# 4258, uniprot Q63HN8) | Liganded ([4]; RNF213 Res# 4407, uniprot Q63HN8) | Liganded ([5]; DTL Res# 136, uniprot Q9NZJ0) | Liganded ([5]; DTL Res# 141, uniprot Q9NZJ0) | Liganded ([6]; VDAC2 Res# 210, uniprot P45880) | Liganded ([6]; VDAC2 Res# 227, uniprot P45880) | Liganded [7] | Liganded ([8]; MYCBP2 Res# 1131, uniprot O75592) | Liganded ([8]; MYCBP2 Res# 3152, uniprot O75592) | Liganded [9] | Liganded ([10]; RNF2 Res# 54, uniprot Q99496) | 100 Max ([10]; uniprot Q99496) | 100 ave ([10]; uniprot Q99496) | 500 Max ([10]; uniprot Q99496) | 500 ave ([10]; uniprot Q99496) |
| --- | --- | --- | --- | --- | --- | --- | --- | --- | --- | --- | --- | --- | --- | --- | --- | --- | --- | --- | --- |
| COc1ccc2c(c1)CCCN2C(=O)CCl [KB02] | YES | YES | YES | YES | YES | YES | YES | YES | YES | YES | YES | YES | YES | YES |  |  |  |  |  |
| O=C(CCl)Nc1cc(C(F)(F)F)cc(C(F)(F)F)c1 [KBO3] |  |  |  |  |  |  |  |  |  |  |  |  |  |  | YES | 18.1 | 0.5 | 76.8 | 76.8 |
